Assay [1] concerns rat mPFC layer V pyramidal cells. The assay can be described thus: Inward. It is filed as cell-based.
Assay [2] has the same test system. The assay can be described thus: Spontaneous EPSCs in acute rat brain slices. The assay is classed as cell-based.
For assay [3], the system named is mPFC layer V neurons, wildtype (WT) mice. The experiment in a line: Spontaneous EPSCs in slices from wild-type mice. The assay is classed as cell-based, mouse.
Assay [4] deals with rat mPFC layer V pyramidal cells. The assay is classed as cell-based. The note with it: 10 μM; 1 μM TTX.
Assay [5] deals with hM1 receptor. The assay can be described thus: Millipore GPCR Profiler functional screen, hM1. It is filed as cell-based, human. The note with it: two-addition protocol, BQCA 12.5 μM in first addition.
Assay [6] has as its system hM4 receptor. The assay can be described thus: Millipore GPCR Profiler functional screen, hM4. The assay is classed as cell-based, human. The note with it: two-addition protocol, BQCA 12.5 μM in first addition.
Assay [7] has as its system 15 other closely related GPCRs. The assay can be described thus: Millipore GPCR Profiler functional screen, GPCR panel. The assay is classed as cell-based.
[8] abbreviates: 10 μM applied alone, −70 mV, 1 μM TTX.

Regarding `C[N+](C)(C)CCOC(N)=O` [CCh, carbachol], the “Inward current (change in holding current)” value in assay [1] (setting [8]) is listed as 16.55 ± 1.93 pA; in assay [1] (100 μM applied alone, −70 mV, 1 μM TTX), 53.14 ± 5.92 pA. The sEPSC amplitude is listed as 97.5 ± 4.4 % control in assay [2] (10 μM applied alone); 108.3 ± 3.9 % control in assay [2] (30 μM applied alone); 154.3 ± 46.2 % control in assay [2] (100 μM applied alone); 102.6 ± 11.7 % of control in assay [3] (3 μM applied alone); 143.1 ± 22.0% in assay [3] (30 μM applied alone). In addition, the sEPSC frequency worked out at 90.1 ± 12.4 % control in assay [2] (10 μM applied alone); 455.0 ± 101.9 % control in assay [2] (30 μM applied alone); 887.6 ± 268.5 % control in assay [2] (100 μM applied alone); 83.2 ± 47.1% in assay [3] (3 μM applied alone); 398.3 ± 56.2% in assay [3] (30 μM applied alone). The mEPSC amplitude in assay [4] stood at 88.6 ± 3.8 % control.
For `COc1ccc(Cn2cc(C(=O)[O-])c(=O)c3ccccc32)cc1.[Na+]` [BQCA, Sodium 1-(4-methoxybenzyl)-4-oxo-1,4-dihydroquinoline-3-carboxylate], the “Potentiation of the functional response” value in assay [5] is “robust potentiation”. The “Activity in the functional screen” value in assay [6] was “no activity”. Also, in assay [7] (12.5 μM, any receptor tested), the “Agonist activity when applied alone in the first addition” value is “no agonist activity”. The “Effect (PAM or antagonist activity) at the other GPCRs tested” value in assay [7] (two-addition protocol, BQCA 12.5 μM in first addition) is “no effect”.
`O=C(CCNS(=O)(=O)c1cccc2nsnc12)N1CCN(c2ccncc2)CC1` [VU0255035]: the figures for the “Inward current (change in holding current)” value in assay [1] (setting [8]) and in assay [1] (100 μM CCh in the presence of 10 μM VU0255035) were “no effect” and 11.78 ± 1.90 pA, respectively. Moreover, the sEPSC amplitude in assay [2] (5 μM antagonist with 30 μM CCh) came to 87.1 ± 3.5 % control; in assay [2] (5 μM applied alone), 92.9 ± 3.4 % control. The sEPSC frequency in assay [2] (5 μM antagonist with 30 μM CCh) was 62.5 ± 10.1 % control; in assay [2] (5 μM applied alone), 114.1 ± 25.8 % control.

Source of the values: publication PMC2811323 (The Journal of neuroscience : the official journal of the …, 2009).
